Test results from ChEMBL document CHEMBL2163290, “Substituted pyrazolones require N2 hydrogen bond donating ability to protect against cytotoxicity from protein aggregation of mutant superoxide dismutase 1” (Bioorg Med Chem Lett, 2012).

System: PC-12
Assay: Neuroprotective activity in rat PC12 cells expressing SOD1 G93A mutant assessed as increase in cell viability after 48 hrs by CalceinAM-based fluorescence assay
Assay type: functional
Conditions: PC-12, 48 h

Question: How did the EC50 turn out when `O=c1cc(COc2cc(Cl)cc(Cl)c2)[nH][nH]1` was run?
Answer: 67 nM

Question: Which EC50 does the source give for `O=C1CC(COc2cc(Cl)cc(Cl)c2)CN1Cc1ccccc1` (stereo not given) here?
Answer: > 32000 nM

Question: For `O=C1C=C(COc2cc(Cl)cc(Cl)c2)CN1Cc1ccccc1`, which EC50 is on record?
Answer: > 32000 nM

Question: For `Cn1[nH]c(COc2cc(Cl)cc(Cl)c2)cc1=O`, which EC50 is on record?
Answer: 670 nM

Question: For `Cn1c(COc2cc(Cl)cc(Cl)c2)cc(=O)n1C`, which EC50 is on record?
Answer: > 32000 nM

Question: Which EC50 does the source give for `O=C1N[C@H]2[C@H](CS[C@H]2CCCCC(=O)n2[nH]c(COc3cc(Cl)cc(Cl)c3)cc2=O)N1` here?
Answer: 560 nM

Question: For `O=C(CCCC[C@@H]1SC[C@@H]2NC(=O)N[C@@H]21)NCCOCCOCCOCCOCCC(=O)n1[nH]c(COc2cc(Cl)cc(Cl)c2)cc1=O`, which EC50 is on record?
Answer: 670 nM

Question: With `O=c1cc(COc2cc(Cl)cc(Cl)c2)[nH]n1CCO` as the compound, how does the EC50 read?
Answer: > 32000 nM

Question: With `O=c1cc(COc2cc(Cl)cc(Cl)c2)[nH]n1CCCO` as the compound, how does the EC50 read?
Answer: 340 nM

Question: With `O=c1cc(COc2cc(Cl)cc(Cl)c2)[nH]n1-c1ccccc1` as the compound, how does the EC50 read?
Answer: 1030 nM

Question: For `O=c1cc(COc2cc(Cl)cc(Cl)c2)[nH]n1-c1ccc(Cl)cc1`, which EC50 is on record?
Answer: 1730 nM

Question: Which EC50 does the source give for `O=c1cc(COc2cc(Cl)cc(Cl)c2)[nH]n1-c1c(Cl)cc(C(F)(F)F)cc1Cl` here?
Answer: > 32000 nM

Question: Which EC50 does the source give for `O=c1cc(COc2cc(Cl)cc(Cl)c2)[nH]n1-c1ccc([N+](=O)[O-])cc1[N+](=O)[O-]` here?
Answer: > 32000 nM

Question: `O=c1cc(COc2cc(Cl)cc(Cl)c2)[nH]n1-c1nc(-c2ccccc2)cs1` was tested. Which EC50 did it give?
Answer: 1000 nM

Question: Which EC50 does the source give for `O=c1cc(COc2cc(Cl)cc(Cl)c2)[nH]n1Cc1ccccc1` here?
Answer: 130 nM

Question: With `O=c1cc(COc2cc(Cl)cc(Cl)c2)[nH]n1Cc1cccc(O)c1` as the compound, how does the EC50 read?
Answer: 360 nM

Question: For `COc1ccc(Cn2[nH]c(COc3cc(Cl)cc(Cl)c3)cc2=O)cc1`, which EC50 is on record?
Answer: > 32000 nM

Question: `O=Cn1[nH]c(COc2cc(Cl)cc(Cl)c2)cc1=O` was tested. Which EC50 did it give?
Answer: 490 nM

Question: How did the EC50 turn out when `CC(=O)n1[nH]c(COc2cc(Cl)cc(Cl)c2)cc1=O` was run?
Answer: 270 nM

Question: For `N#CCC(=O)n1[nH]c(COc2cc(Cl)cc(Cl)c2)cc1=O`, which EC50 is on record?
Answer: 420 nM

Question: `O=C(c1cccs1)n1[nH]c(COc2cc(Cl)cc(Cl)c2)cc1=O` was tested. Which EC50 did it give?
Answer: 310 nM

Question: With `O=C(c1ccc(N=C=S)cc1)n1[nH]c(COc2cc(Cl)cc(Cl)c2)cc1=O` as the compound, how does the EC50 read?
Answer: 330 nM

Question: `Cc1nnsc1C(=O)n1[nH]c(COc2cc(Cl)cc(Cl)c2)cc1=O` was tested. Which EC50 did it give?
Answer: 1710 nM

Question: Which EC50 does the source give for `Nc1ccc(C(=O)n2[nH]c(COc3cc(Cl)cc(Cl)c3)cc2=O)cc1` here?
Answer: 930 nM

Question: For `O=C(c1cccnc1)n1[nH]c(COc2cc(Cl)cc(Cl)c2)cc1=O`, which EC50 is on record?
Answer: 1320 nM
